Measured values as given in patent publication US5643884A, “Lupane triterpenoid derivatives” (Glycomed Incorporated, priority 1993, dated 1997).
In brackets after ≈: the same amount, converted by molar mass.

Legend:
[1] = test system: P-388 lymphocytic leukemia cells; settings: Choi et al, Planta Medica 1988; cited from earlier work
ornithine decarboxylase = settings: Yasukawa et al. 1991; cited from earlier work
5-lipoxygenase = settings: Sotomatsu et al. 1959; Inoue et al. 1986; cited from earlier work
P-selectin = experiment: inhibition of P-selectin binding to HL-60 cells; type: cell-based, human HL-60 cells; settings: read-out: IC50, P-selectin binding to HL-60 cells; P-selectin 200 ng/ml; 4° C., 1 hour
Method: Certain of the invention compounds were tested for their capacity to inhibit P-selectin binding to HL-60 cells, and to a chemical known to bind to P-selectin, 2,3 sLex. The following materials and procedures were used.
P-Selectin Detection Solutions. Goat F(ab')2 anti-human IgG (Fc spec.)-biotin and streptavidin-AP were diluted 1:1000 in 1% BSA-TBS with 1 mM Ca^++. An Elisa assay was utilized to measure P-selectin binding to 2,3 sLex, and P-selectin was added at 300 ng/ml. An Elisa assay was also used to assay for the capacity of the invention compounds to inhibit HL-60 cell binding to P-selectin. HL-60 cells were used, and P-selectin was added at 200 ng/ml.
2,3 sLex was coated at 30 pmoles/well to Probind microtiter plates for Elisa. The glycolipid was added at 50 μl/well in 50% MeOH and allowed to evaporate overnight. Elisa plates and HL-60 assay plates were blocked with 5% BSA-TBS Ca^++ for more than an hour at room temperature. The plates were washed with TBS without Ca^++.
HL-60 cells were harvested by centrifugation, washed with TBS no Ca^++, counted, and the density adjusted to 2×10^6 /ml in 1% BSA-TBS Ca^++.
Briefly, the assays were conducted as follows. […] DMF solutions were added directly to 1% BSA/TBS-Ca for dilutions through 0.5 mM. Lower concentrations were made in serial two-fold dilutions in BSA-TBS. […]

E-selectin = experiment: cancer cell adhesion to E-selectin (E-selectin chimera binding to fixed LS174T colon carcinoma cells); type: cell-based; settings: lowest concentration from serial two-fold dilutions inhibiting by 50% or more, FIGS. 3 and 4
Method: The mixture is rotated briskly on a rotary platform at room temperature for about 30-60 minutes. Particulate matter is removed by centrifugation, and the soluble fraction is transferred onto 96-well microtiter plates containing glutaraldehyde fixed LS174T colon carcinoma cells. This cell line is known to adhere to E-selectin. After 60 minutes at 37° C., plates are washed and E-selectin chimera bound to cells is quantified by addition of pNPP substrate in 1M diethanolamine buffer containing 0.1 mg/ml MgCl2 at pH 9.8. Plates are developed in the dark and read at 405 nm. The IC50 values are calculated and are the lowest concentrations from serial two-fold dilutions (quadruplicate wells at each concentration) which inhibits cell binding by 50% or more relative to the control.
Experiments were conducted to determine the capacity of the invention compounds to interfere with the binding of cancer cells to E-selectin. The compounds are dissolved in dimethylformamide (DMF) prior to being assayed. […] After 60 minutes at 37° C., plates are washed and E-selectin chimera bound to cells is quantified by addition of pNPP substrate in 1M diethanolamine buffer containing 0.1 mg/ml MgCl2 at pH 9.8. Plates are developed in the dark and read at 405 nm. […]

[2] = test system: arachidonic acid (AA) induced ear swelling; experiment: arachidonic acid (AA), murine skin inflammation model (ear swelling); type: in vivo; settings: topical, 1 mg, 90 minutes
Method: Arachidonic acid is known to induce an inflammatory response and the compounds were tested for their capacity to inhibit the response.
Briefly, the compounds at an appropriate concentration are dissolved in a suitable solvent, and applied to a rodent ear immediately following application of arachidonic acid (AA). A control of AA alone is run. About 90 minutes later a 6 mm disk of each ear is removed and weighed.
For comparison, betulinic acid was also tested. All compounds were dissolved at 50 mg/mL in CHCl3 :CH3 OH (1:1) and […] of each compound was applied two times to the ear, at about a 2 minute interval or the period of time it took for the solvent to evaporate from the ear, immediately following arachidonic acid (AA). A control of AA alone was run. Ninety minutes later a 6 mm disk of each ear was removed and weighed.

| Structure (SMILES) | ED50 against P-388 lymphocytic leukemia cells [1] | inhibition of ornithine decarboxylase (ornithine decarboxylase) | inhibition of enzymes involved in leukotriene biosynthesis, including 5-lipoxygenase (5-lipoxygenase) | IC50 (P-selectin) | IC50 (E-selectin) | % Inhibition of Swelling ([2]; first printed value of three separate experiments) | % Inhibition of Swelling ([2]; first printed value of three separate experiments, listed as Betulinic acid) | % Inhibition of Swelling ([2]; second printed value of three separate experiments) | % Inhibition of Swelling ([2]; third printed value of three separate experiments) |
| --- | --- | --- | --- | --- | --- | --- | --- | --- | --- |
| C=C(C)[C@@H]1CC[C@]2(C(=O)O)CC[C@]3(C)[C@H](CC[C@@H]4[C@@]5(C)CC[C@H](OC(C)=O)C(C)(C)[C@@H]5CC[C@]43C)[C@@H]12 [betulinic acid 3-monoacetate] | 10.5 µg/mL (≈ 21.1 µM) | – | – | – | – | – | – | – | – |
| C=C(C)[C@@H]1CC[C@]2(C(=O)OC)CC[C@]3(C)[C@H](CC[C@@H]4[C@@]5(C)CC[C@H](O)C(C)(C)[C@@H]5CC[C@]43C)[C@@H]12 [betulinic acid methyl ester] | 6.8 µg/mL (≈ 14.4 µM) | – | – | – | – | – | – | – | – |
| C=C(C)[C@@H]1CC[C@]2(C(=O)O)CC[C@]3(C)[C@H](CC[C@@H]4[C@@]5(C)CC[C@H](O)C(C)(C)[C@@H]5CC[C@]43C)[C@@H]12 [betulinic acid] | – | known inhibitor of ornithine decarboxylase | capacity to inhibit enzymes involved in leukotriene biosynthesis, including 5-lipoxygenase | ~750 µM | 60 µM | ~0% | 0.0% | ~12.2% | ~25.9% |
